Broadly, the IC50 is the concentration needed to halve the response being measured. Low readings indicate greater potency in that assay, high ones weaker potency in that assay.

Two compounds from patent US9073833B1, “Oxime-based compound, pharmaceutical composition containing the same and method for preparing the same” (Chang Gung University, priority 2014, dated 2015) can be followed below.

Experiment [1] concerns acute lung injury induced by LPS. Kind of experiment: LPS-induced acute lung injury: tissue pathological examination of lung. In kind it is in vivo, mouse (C57BL/6). The conditions noted are these: 100 mg/kg intraperitoneal; 6 hours after LPS; H&E, 400×. On the procedure:
The left lung tissue of the mice from each group was rinsed with PBS and was fixed using a fixating solution (10% paraformaldehyde prepared in PBS) for 24 hours, followed by subjecting to ethanol dehydration treatment. The dehydrated tissue was then embedded in paraffin and sliced, thereby obtaining a sample with 4 to 6 μm thickness. The paraffin was then removed from the sample. The tissue was then stained with hematoxylin and eosin, was observed using an optical microscope (IX81, Olympus) at 400× magnification, and an image thereof was captured using a digital camera (DP72, Olympus).

Experiment [2] has as its system foot edema induced by human neutrophil elastase. The experiment is described as follows: Foot edema induced by human neutrophil elastase in mice.
Experiment [3] has as its system acute lung injury induced by LPS. The experiment is described as follows: LPS-induced acute lung injury: myeloperoxidase (MPO) activity in lung tissue. The conditions noted are these: 100 mg/kg intraperitoneal, 60 minutes before LPS; 6 hours after LPS.
Experiment [4] concerns the target human neutrophil elastase (Homo sapiens (Human), UniProt P08246). Kind of experiment: Inhibition of human neutrophil elastase activity (MeO-Suc-Ala-Ala-Pro-Val-p-nitroanilide, OD405). Type of experiment: biochemical. Particulars: mean ± SEM (n = 3), 30° C., 30 minutes.

Sequence of human neutrophil elastase (P08246 30-267): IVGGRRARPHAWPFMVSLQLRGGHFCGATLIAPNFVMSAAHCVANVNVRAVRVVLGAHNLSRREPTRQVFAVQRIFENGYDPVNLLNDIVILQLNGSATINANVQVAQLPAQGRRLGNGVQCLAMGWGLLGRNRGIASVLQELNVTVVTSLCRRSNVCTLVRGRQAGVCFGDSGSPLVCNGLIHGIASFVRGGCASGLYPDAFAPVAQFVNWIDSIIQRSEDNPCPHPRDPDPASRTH

`C/C(=N\O)c1ccccc1NS(=O)(=O)c1ccc(OC(=O)C(C)(C)C)cc1` [Compound 1, (E)-4-(N-(2-(1(hydroxyimino)ethyl)phenyl)sulfamoyl)phenyl pivalate]: the “lung histology (alveolar edema, interstitial lung edema, leukocyte infiltration)” value in experiment [1] was “minor alveolar edema, interstitial lung edema, and leukocyte infiltration”. Besides, the “edema degree (change in foot thickness) vs pathological control group” value in experiment [2] (50 mg/kg and 100 mg/kg intraperitoneal, 60 minutes before elastase, 10th-240th minute) is given as “relatively lower edema degree”. In experiment [2] (100 mg/kg intraperitoneal, Sivelestat 100 mg/kg), the “reduction of edema degree compared with Sivelestat” value is on record as “superior effect in reduction of edema degree to Sivelestat”. Besides, in experiment [3], the “MPO activity in lung tissue vs pathological control group” value is listed as “significantly reduced MPO activity”.
`C/C(=N\OCCCO)c1ccccc1NS(=O)(=O)c1ccc(OC(=O)C(C)(C)C)cc1` [Compound 7, (E)-4-(N-(2-(1-(3-hydroxypropoxyimino)ethyl)phenyl)sulfamoyl)phenyl pivalate] returned an IC50 in experiment [4] of 159 ± 15.5 µM.
